Data: PMC5473904, “Epigenetic and antitumor effects of platinum(IV)-octanoato conjugates” (Scientific Reports, 2017)

Key:
[1] = test system: DNA methylation in HCT-116 cells; test: DNA methylation analysis (Imprint methylated DNA quantification kit); format: cell-based, human; conditions: HCT-116, 30 µM, 72 h
Protocol: Human colon adenocarcinoma cells HCT-116 were chosen as the model cellular system suitable for DNA methylation analysis because: (i) this human colorectal cancer cell line has been used as a prototypic model for analyses of the genetic basis of cancer, and the role of epigenetic changes in tumorigenesis; (ii) they have a propensity to both global DNA hypomethylation and to silence genes through promoter focal hypermethylation, [21]. HCT-116 cells were treated with the compounds at the concentrations indicated in Fig. 4A for 24 or 72 h and DNA was isolated for the complete methylation analysis as described in the experimental section. Decitabine (5-aza-2′-deoxycytidine), a hypomethylating agent which hypomethylates DNA by inhibiting DNMT, was used in these experiments as a […]. The IC50 values found for this agent in HCT-116 cells (the drug-treatment period was 72 h) was (7.5 ± 0.3) µM (Table 1).
Figure 4 Analysis of DNA methylation. (A) DNA was isolated from HCT-116 cells after the exposure to the agents at the concentrations indicated in the graph for 24 or 72 h. The levels of DNA methylation in the control was taken as 100%. The bars represent mean values from three independent experiments each performed in octuplicate. The error bars are the SDs. (B) DNMT activity in colon carcinoma cells HCT-116 treated for 24 h with the compounds tested in the present work. The DNMT activity in the control, untreated cells was taken as 100%. Error bars are the SDs and the stars at the top of bars denote a significant difference from the control with (*p < 0.05; **p < […]), calculated using […] student’s t-test. The bars represent mean values from three independent experiments, each performed in quadruplicate.
Human colon carcinoma cells (HCT-116) were seeded at the density 1.5 × 10^6 cells/dish. […] The DNA content in each sample was determined by UV spectrophotometry. DNA (200 ng) from the samples was loaded to the Imprint methylated DNA quantification kit (Sigma-Aldrich, USA). The level of methylated DNA was proportional to the absorbance measured at 450 nm.

A2780 cells = test: Pt accumulation in A2780 cells with and without serum, BSA or lipoproteins; format: cell-based, human; conditions: A2780, 10 μM, 4 h
Protocol: Interactions with serum proteins
The trends observed in the results of the in vivo antitumor activity experiments, such as the tissue biodistribution (Fig. S2A), blood levels (Fig. S2B), and cellular accumulation (Table 2) of Pt(IV) complexes could be also related to their sequestration by plasma proteins, mainly by 8 human serum albumin . Thus, the accumulation experiments in cellulo were carried out employing A2780 cells without serum (and therefore without BSA) in the culture medium. As shown in Fig. S3, when passing from the treatment in complete medium (+FBS) to the […]
Supplementary Figure S3: Pt accumulation in A2780 cells treated with Pt(IV) prodrugs […]
treatment in complete medium (+FBS) and in serum-free medium (- FBS). Data are means of at least three replicates and were tested using the two sample t-test (***p<0.001). […]
medium supplemented with 10% FBS contains 30 µM BSA, which is known to transport octanoate9,10, and 300 μg mL-1 cholesterol in the most lipophilic component, i.e. lipoproteins11, which are known to transport lipophilic drugs12,13. To verify whether the accumulation of Pt(IV)diOA could be mainly affected by BSA or lipoproteins, the experiments were repeated in serum-free medium supplemented with BSA (-FBS, + BSA) or LPC, lipoprotein-rich cholesterol (-FBS + LPC), respectively (see experimental part). As […]
(1 picture or pasted object on this page, not shown here)
(control, -FBS), in serum-free medium supplemented with 30 µM BSA (-FBS, + BSA), with lipoproteins (-FBS + LPC), and in complete medium (+FBS). Data are means of at least three replicates and were tested using the two sample t-test (***p<0.001). […]
Co.) and transferred into a microwave Teflon vessel. Subsequently, samples were submitted to the standard procedure using a speed microwave. After cooling, each mineralized sample was analyzed for platinum by ICP-MS (ThermoOptek X Series 2). Instrumental settings were optimized to achieve maximum sensitivity for platinum. For quantitative determination, the most abundant isotopes of platinum and indium (used as internal standard) were measured at m/z 195 and 115, respectively.
Accumulation of platinum in tumor cells treated with Pt(IV) complexes and cisplatin (in cellulo experiments) in the absence of serum. A2780 cells were seeded in 10 mm Petri dishes and treated with the platinum complexes (10 μM) for 4 h in complete medium, i.e. + 10 % FBS (HyClone, GE Healthcare). At time zero, 100 μL of medium was taken out from each sample to check the extracellular Pt concentration. […]
The level of Pt found in cells after drug treatment and normalized 6 upon the cell number (cellular Pt accumulation) was expressed as ng Pt per 10 cells. […]

[2] = test system: A2780 human ovarian carcinoma cells; design: method as in PMID 25888926; conditions: compared with Pt(IV)diOA value of Table 1; cited from earlier work

Row | Compound | Change of DNA methylation [1] | Change of Pt accumulation from complete medium (+FBS) to serum-free medium (-FBS) (A2780 cells) | Effect of BSA addition to serum-free medium on Pt accumulation (A2780 cells; -FBS + BSA) | Effect of LPC (lipoprotein-rich cholesterol) supplementation of serum-free medium on Pt accumulation (A2780 cells; -FBS + LPC) | IC50 [2]
1 | N.N.[Cl][Pt][Cl] [cisplatin, reference compound] | non-significant change | – | – | – | –
2 | CCCCCCCC(=O)[O][Pt]([NH2])([NH2])([Cl])([Cl])[O]C(=O)CCCCCCC [Pt(IV)diOA, cis, cis, trans-[Pt(IV)(NH3)2Cl2(OA)2]] | – | 3 fold | negligible effect | decreased Pt accumulation | –
3 | CCCC(CCC)C(=O)[O][Pt]([NH2])([NH2])([Cl])([Cl])[O]C(=O)C(CCC)CCC [Pt(IV)diVPA, cis, cis, trans-[Pt(IV)(NH3)2Cl2(VPA)2]] | – | no significant change | – | – | 250 ± 90 nM
